In US5935959A, “Piperazine derivatives and use as cysteine inhibitors” (Senju Pharmaceutical Co., Ltd., priority 1995, dated 1999):
Like-named read-outs stand apart in the source and are kept apart here.

What was measured:
Assay type in all cases: biochemical
trypsin = test: Assay of Trypsin-Inhibitory Activity (casein degradation); details: read-out: Trypsin 50% Inhibitory concentration (IC50); casein substrate, pH 8.0, 60 min, 30° C.
Protocol: (§1) The activity of papain which is a cysteine protease and of trypsin (Sigma) which is a serine protease was assayed in accordance with the method described in the literature [Anal. Biochem., 208, 387-392, 1993]. Thus, to a solution containing 0.5 mg/ml casein, 50 mM Tris-HCl (pH 8.0), 20 mM dithiothreitol, and 0.2 mM EDTA was added 2.5 μl of dimethyl sulfoxide containing a varying concentration of the test drug as well as 0.03 unit of papain or trypsin to initiate the reaction. The final liquid volume was adjusted to 250 μl. After 60 minutes of reaction at 30° C., 100 μl of the reaction mixture was transferred to another vessel and following addition of 50 μl of purified water and 100 μl of 50% Coumassie brilliant blue solution, the mixture was allowed to stand at room temperature for 15 minutes. The absorbance of the mixture was then measured at 595 nm. Using the value found similarly by adding 2.5 μl of dimethyl sulfoxide not containing the test drug as control and the value found without addition of the enzyme as blank, IC50 was determined in the same manner as above. E64 and leupeptin were used as reference drugs.

μ-calpain = target: T1, μ-calpain (Homo sapiens, UniProt P07384); test: Assay of μ-Calpain-Inhibitory Activity (casein degradation); details: casein substrate, pH 7.4, 60 min, 30° C.
T1 construct: purchased Nakarai Tesque
T1 sequence (P07384 1-714): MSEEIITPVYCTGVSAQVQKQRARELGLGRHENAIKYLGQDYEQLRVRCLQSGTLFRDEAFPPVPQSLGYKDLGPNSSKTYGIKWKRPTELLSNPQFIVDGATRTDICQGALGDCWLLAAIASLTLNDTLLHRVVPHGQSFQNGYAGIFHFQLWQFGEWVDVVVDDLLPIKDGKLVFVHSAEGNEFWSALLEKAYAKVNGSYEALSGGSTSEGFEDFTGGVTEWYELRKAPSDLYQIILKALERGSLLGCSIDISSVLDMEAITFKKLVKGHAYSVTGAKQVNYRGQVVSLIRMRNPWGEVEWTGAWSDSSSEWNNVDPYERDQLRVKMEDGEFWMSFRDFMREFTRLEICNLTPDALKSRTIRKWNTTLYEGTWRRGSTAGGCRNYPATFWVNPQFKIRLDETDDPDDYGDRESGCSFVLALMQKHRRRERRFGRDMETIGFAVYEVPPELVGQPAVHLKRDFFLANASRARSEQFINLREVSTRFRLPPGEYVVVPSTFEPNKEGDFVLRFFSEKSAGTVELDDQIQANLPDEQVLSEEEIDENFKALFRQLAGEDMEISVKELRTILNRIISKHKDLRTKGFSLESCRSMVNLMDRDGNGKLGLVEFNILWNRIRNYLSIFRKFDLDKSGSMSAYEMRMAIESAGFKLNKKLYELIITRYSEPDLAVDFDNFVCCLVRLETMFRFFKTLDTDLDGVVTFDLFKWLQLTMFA
T1 sequence (P04632 1-268 partner): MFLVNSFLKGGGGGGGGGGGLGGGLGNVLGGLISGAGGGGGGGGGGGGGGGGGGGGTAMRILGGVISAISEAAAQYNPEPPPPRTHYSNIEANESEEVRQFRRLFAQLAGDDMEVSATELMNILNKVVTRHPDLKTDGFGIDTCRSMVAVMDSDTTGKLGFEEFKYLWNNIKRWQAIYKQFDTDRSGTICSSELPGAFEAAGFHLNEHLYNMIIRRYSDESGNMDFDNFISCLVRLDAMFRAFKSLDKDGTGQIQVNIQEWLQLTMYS
Protocol: The activity of μ-calpain (Nakarai Tesque) was assayed in accordance with the procedure described in the literature [Anal. Biochem., 208, 387-392 (1993)]. Thus, to a solution containing 0.5 mg/ml casein, 50 mM Tris-HCl (pH 7.4), 20 mM dithiothreitol, and 4 mM calcium chloride was added 2.5 μl of a dimethyl sulfoxide solution containing a varying concentration of the test drug as well as 0.03 unit of μ-calpain to initiate the reaction. The final liquid volume was 250 μl. After 60 minutes of reaction at 30° C., 100 μl of the reaction mixture was transferred to another vessel, to which 50 μl of purified water and 100 μl of 50% Coumassie brilliant blue solution were added. The mixture was allowed to stand at room temperature for 15 minutes and the absorbance was measured at 595 nm. As a control, 2.5 μl of dimethyl sulfoxide not containing the test drug was added and the mixture was treated in the same manner as above. The absorbance value thus found was used as the control value. Similarly, the value found by adding 0.2 mM EDTA in lieu of 4 mM aqueous calcium chloride solution was used as the blank value. […] E64 which is a known cysteine protease inhibition compound was used as a reference drug. [formula]

cathepsin L = target: T2, cathepsin L (Homo sapiens, UniProt P07711); test: Assay of Cathepsin L-Inhibitory Activity (Z-Phe-Arg-MCA); details: Z-Phe-Arg-MCA 20 μM, pH 5.5, 20 min, 30° C.
T2 construct: purchased Cosmo Bio
T2 sequence (P07711 114-333, species assumed): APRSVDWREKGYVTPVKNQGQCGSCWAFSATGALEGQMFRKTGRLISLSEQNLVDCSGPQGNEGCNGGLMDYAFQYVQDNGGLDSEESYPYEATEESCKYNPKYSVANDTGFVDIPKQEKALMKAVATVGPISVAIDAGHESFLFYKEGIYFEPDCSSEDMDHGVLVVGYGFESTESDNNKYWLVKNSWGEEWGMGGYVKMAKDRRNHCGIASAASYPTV
Protocol: The activity of cathepsinL (Cosmo Bio), a cysteine protease, was assayed by the method described in the literature [Methods in Enzymology, 80, 535-561, 1981]. Thus, to a solution containing 85 mM acetate buffer (pH 5.5), 2 mM dithiothreitol, 1 mM EDTA, 2 μg cathepsin L, and a varying concentration of the test compound was added 20 μM carbobenzoxy-L-phenylalanyl-L-arginine-4-methyl-coumaryl-7-amide (Z-Phe-Arg-MCA) to initiate the reaction at the final liquid volume of 200 μl. After 20 minutes of reaction at 30° C., 20 μl of 1M Tris-HCl (pH 8.0) was added so as to stop the reaction. The amount of liberated 4-methyl-7-aminocoumarin was determined with a fluorospectrometer at an excitation wavelength of 360 nm and a fluorescent emission wavelength of 450 nm. Using the value found without addition of the test drug as control and the value found without addition of the enzyme as blank, IC50 was determined in the same manner as above. E64 was used as a reference drug.

papain = target: T3, papain (Carica papaya, UniProt P00784); test: Assay of Papain-Inhibitory Activity (casein degradation); details: casein substrate, pH 8.0, 60 min, 30° C.
T3 construct: purchased Sigma
T3 sequence (P00784 134-345): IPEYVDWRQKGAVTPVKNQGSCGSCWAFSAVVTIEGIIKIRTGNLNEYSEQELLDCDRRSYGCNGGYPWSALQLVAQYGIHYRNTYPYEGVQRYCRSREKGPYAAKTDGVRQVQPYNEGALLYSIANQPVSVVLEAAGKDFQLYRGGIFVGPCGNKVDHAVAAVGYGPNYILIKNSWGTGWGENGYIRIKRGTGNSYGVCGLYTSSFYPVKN
Protocol: as §1

| SMILES | IC50 (trypsin) [µM] | IC50 (μ-calpain) [µM] | further results |
| --- | --- | --- | --- |
| O=C(O)[C@H]1O[C@@H]1C(=O)N[C@@H](Cc1ccccc1)C(=O)N1CCN(c2ccc(F)cc2)CC1 [Example 21, (2s,3s)-3-[[[[(1s)-1-[[4-(4-fluorophenyl)-1-piperazinyl]carbonyl]-2-phenyl]ethyl]amino]carbonyl]oxiranecarboxylic acid] | > 3000 |  |  |
| CC(C)C[C@H](NC(=O)[C@H]1O[C@@H]1C(=O)O)C(=O)N1CCN(c2ccc(F)cc2)CC1 [Example 23, (2s,3s)-3-[[[[(1s)-1-[[4-(4-fluorophenyl)-1-piperazinyl]carbonyl]-3-methyl]butyl]amino]carbonyl]oxiranecarboxylic acid] | > 3000 |  |  |
| Cc1ccc(S(=O)(=O)N2CCN(C(=O)[C@H](CC(C)C)NC(=O)[C@H]3O[C@@H]3C(=O)O)CC2)cc1 [Example 26, (2s,3s)-3-[[[[(1s)-1-[[4-(4-methylphenylsulfonyl)-1-piperazinyl]carbonyl]-3-methyl]butyl]amino]carbonyl]oxiranecarboxylic acid] | > 3000 |  |  |
| CC(C)C[C@H](NC(=O)[C@H]1O[C@@H]1C(=O)O)C(=O)N1CCN(c2ccccc2Cl)CC1 [Example 27, (2s,3s)-3-[[[[(1s)-1-[[4-(2-chlorophenyl)-1-piperazinyl]carbonyl]3-methyl]butyl]amino]carbonyl]oxiranecarboxylic acid] | > 3000 |  |  |
| O=C(O)[C@H]1O[C@@H]1C(=O)NCC(=O)N1CCN(c2ccccc2Cl)CC1 [Example 32, (2s,3s)-3-[[[[[4-(2-chlorophenyl)-1-piperazinyl]carbonyl]methyl]amino]carbonyl]oxiranecarboxylic acid] | > 3000 | 17.5 | IC50 (cathepsin L; read-out: Cathepsin L 50% Inhibitory concentration (IC50)): 37.6 µM |
| CC[C@H](C)[C@H](NC(=O)[C@H]1O[C@@H]1C(=O)O)C(=O)N1CCN(c2ccccc2Cl)CC1 [Example 34, (2s,3s)-3-[[[[(1s)-1-[[4-(2-chlorophenyl)-1-piperazinyl]carbonyl]-2-methyl]butyl]amino]carbonyl]oxiranecarboxylic acid] | > 3000 |  | IC50 (cathepsin L): 0.009 µM |
| CC(=O)NCSC[C@H](NC(=O)[C@H]1O[C@@H]1C(=O)O)C(=O)N1CCN(c2ccccc2Cl)CC1 [Example 38, (2s,3s)-3-[[[[(1s)-1-[[4-(2-chlorophenyl)-1-piperazinyl]carbonyl]-2-acetylaminomethylthio]ethyl]amino]carbonyl]oxiranecarboxylic acid] |  | 3.9 |  |
| O=C(O)[C@H]1O[C@@H]1C(=O)NC1(C(=O)N2CCN(c3ccc(F)cc3)CC2)CCCC1 [Example 41, (2s,3s)-3-[[[(1s)-1-[[4-(4-fluorophenyl)-1-piperazinyl]carbonyl]-1-cyclopentyl]amino]carbonyl]oxiranecarboxylic acid] |  | 145 |  |
| CC(C)C[C@H](NC(=O)[C@H]1O[C@@H]1C(=O)O)C(=O)NCCCCNC(=N)N [Example E-64, reference compound] | > 300 | 0.66 | IC50 (cathepsin L): 0.015 µM; IC50 (papain): 0.032 µM |
| CC(=O)N[C@@H](CC(C)C)C(=O)N[C@@H](CC(C)C)C(=O)N[C@H](C=O)CCCNC(=N)N [Leupeptin, reference compound] | 7.4 |  |  |
